Test systems include ACHN; CAKI-1; EKVX; HCC 2998; HCT-116; HL-60; HOP-92; HT-29; IGROV-1; M14; MCF7; NCI-H23; OVCAR-4; RXF 393; SF-268; SF-539; SK-MEL-28; SN12C; T47D; U-251.
What all share (test): inhibition of tumour cell growth, NCI panel, 48 h

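These data come from cells grown in 96-well plates and exposed to compound for 48 hours at five concentrations. Abbreviation: GI50, concentration required for 50% inhibition of growth.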 Active and inactive are the calls of the source. Cut-off read from the data, not from the text of the source: active = GI50 up to about 1.1 µM and inactive = higher. A value given as a limit tells only on which side of the number the result lay.

For the compound `c1ccc2c[n+](CCCCCCCCCC[n+]3ccc4ccccc4c3)ccc2c1`, the GI50 in the test on ACHN was > 10 µM (inactive); in the test with CAKI-1 it was > 10 µM (inactive); with EKVX, 2.07 µM (inactive); in the test on HCC 2998, > 10 µM (inactive); in the test with HCT-116 it was > 10 µM (inactive); in the test with HL-60 it was > 10 µM (inactive). Further, the GI50 in the test on HOP-92 was > 10 µM (inactive); in the test on HT-29 it was > 5.37 µM (inactive); in the test with IGROV-1, > 10 µM (inactive); with M14, > 10 µM (inactive); in the test on MCF7, > 10 µM (inactive); with NCI-H23 it was 1 µM (active). Moreover, the GI50 is > 10 µM (inactive) with OVCAR-4; > 10 µM (inactive) in the test on RXF 393; > 10 µM (inactive) with SF-268; > 10 µM (inactive) in the test on SF-539; 7.43 µM (inactive) in the test on SK-MEL-28; 0.92 µM (active) in the test on SN12C. In addition, the GI50 is > 10 µM (inactive) in the test on T47D and > 8.59 µM (inactive) with U-251.

On to `Oc1nc2c(c(-c3ccc(Br)cc3)n1)COC/C2=C\c1ccc(Br)cc1`, for which the GI50 with ACHN, in the test with CAKI-1, in the test with EKVX, with HCC 2998, in the test with HCT-116 and in the test with HL-60 was > 50 µM (inactive) throughout. Further, the GI50 in the test on HOP-92 was > 50 µM (inactive); with HT-29, > 50 µM (inactive); with IGROV-1, > 50 µM (inactive); in the test on M14, > 50 µM (inactive); in the test with MCF7, 47.4 µM (inactive); in the test on NCI-H23 it was > 50 µM (inactive). Moreover, the GI50 with OVCAR-4, in the test with RXF 393, with SF-268, in the test on SF-539, with SK-MEL-28 and in the test on SN12C was > 50 µM (inactive) in each case. The GI50 with T47D and with U-251 was > 50 µM (inactive) throughout.

Turning to `Nc1ccc(S(=O)(=O)Nc2nc3ccccc3nc2N2CCCCC2)cc1`, the GI50 in the test with ACHN is 98.6 µM (inactive); in the test on CAKI-1 it was > 100 µM (inactive); in the test on EKVX, > 100 µM (inactive); in the test with HCC 2998, 33.7 µM (inactive); in the test with HCT-116 it was 80.7 µM (inactive); with HL-60, 46.3 µM (inactive). Besides, the GI50 is 53 µM (inactive) in the test with HOP-92; > 100 µM (inactive) with HT-29; 80.9 µM (inactive) with IGROV-1; 91 µM (inactive) in the test with M14; 84.3 µM (inactive) in the test with MCF7; 36.1 µM (inactive) with NCI-H23. Moreover, the GI50 in the test on OVCAR-4 was 24.2 µM (inactive); in the test with RXF 393 it was 55.2 µM (inactive); in the test on SF-268, > 100 µM (inactive); in the test on SF-539 it was > 100 µM (inactive); in the test with SK-MEL-28, 92.9 µM (inactive); with SN12C, 82 µM (inactive). In addition, the figures for the GI50 in the test on T47D and with U-251 were 41.6 µM (inactive) and 68.2 µM (inactive), respectively.

Regarding `c1csc(-c2csc(-c3ccsc3)c2)c1`, the GI50 in the test with ACHN is > 100 µM (inactive); in the test on CAKI-1, > 100 µM (inactive); with EKVX it was > 65.8 µM (inactive); in the test with HCC 2998, > 100 µM (inactive); with HCT-116, > 100 µM (inactive); in the test with HL-60, > 74.6 µM (inactive). Moreover, the GI50 in the test with HOP-92 was > 100 µM (inactive); in the test with HT-29, > 100 µM (inactive); with IGROV-1, > 100 µM (inactive); in the test with M14, > 75.9 µM (inactive); with MCF7, > 46.3 µM (inactive); in the test with NCI-H23, > 68.2 µM (inactive). Further, the GI50 was > 100 µM (inactive) in the test with OVCAR-4; > 46.9 µM (inactive) in the test on RXF 393; > 100 µM (inactive) in the test on SF-268; > 55.5 µM (inactive) in the test with SF-539; > 100 µM (inactive) in the test with SK-MEL-28; > 100 µM (inactive) in the test on SN12C. For the same compound, the GI50 in the test on T47D is > 45.1 µM (inactive); with U-251, > 100 µM (inactive).

Turning to `COc1ccc2c(-c3csc(-c4c[nH]c5ccccc45)n3)c[nH]c2c1`, the GI50 was 5.48 µM (inactive) in the test on ACHN; 12.1 µM (inactive) in the test on CAKI-1; 1.37 µM (inactive) in the test on EKVX; 4.03 µM (inactive) in the test with HCC 2998; 3.68 µM (inactive) with HCT-116; 4.66 µM (inactive) in the test with HL-60. The GI50 in the test with HOP-92 was 7.46 µM (inactive); with HT-29, 2.34 µM (inactive); in the test on IGROV-1, 5.58 µM (inactive); in the test on M14, 7.76 µM (inactive); in the test with MCF7, 4.36 µM (inactive); with NCI-H23, 11.6 µM (inactive). The GI50 with OVCAR-4 is 11 µM (inactive); in the test with RXF 393, 5.01 µM (inactive); in the test on SF-268, 4.14 µM (inactive); with SF-539, 5.73 µM (inactive); in the test on SK-MEL-28 it was 14.6 µM (inactive); in the test with SN12C it was 7.57 µM (inactive). In addition, the results for the GI50 in the test on T47D and in the test with U-251 were 6.32 µM (inactive) and 5.19 µM (inactive), respectively.

With `C=C(Cl)/C(=C/Cl)CCC(Br)C(C)(C)Cl.C=C(Cl)/C(=C\Cl)CCC(Br)C(C)(C)Cl` (stereo not given), the GI50 in the test with ACHN was > 10 µM (inactive); in the test with CAKI-1 it was > 10 µM (inactive); with EKVX, > 10 µM (inactive); in the test with HCC 2998, > 10 µM (inactive); with HCT-116 it was > 10 µM (inactive); with HL-60, 3.56 µM (inactive). Moreover, the GI50 with HOP-92, in the test with HT-29, with IGROV-1, in the test on M14, with MCF7 and with NCI-H23 was > 10 µM (inactive) each time. The GI50 in the test with OVCAR-4, in the test on RXF 393, with SF-268, in the test with SF-539, in the test with SK-MEL-28 and in the test on SN12C was > 10 µM (inactive) throughout. Besides, the GI50 in the test with T47D and with U-251 was > 10 µM (inactive) throughout.

On to `CN(C)CCC(C#N)(c1ccccc1)c1ccccc1`, for which the GI50 was > 100 µM (inactive) in the test with ACHN; > 100 µM (inactive) in the test with CAKI-1; > 100 µM (inactive) in the test with EKVX; 17.5 µM (inactive) with HCC 2998; 72.6 µM (inactive) in the test on HCT-116; 6.62 µM (inactive) with HL-60. The GI50 with HOP-92 was 12.3 µM (inactive); with HT-29, 33.7 µM (inactive); with IGROV-1, 55.1 µM (inactive); with M14 it was 25.9 µM (inactive); in the test on MCF7, 94.4 µM (inactive); with NCI-H23 it was > 100 µM (inactive). In addition, the GI50 in the test with OVCAR-4 was > 100 µM (inactive); with RXF 393 it was 40 µM (inactive); in the test with SF-268 it was > 100 µM (inactive); with SF-539, > 100 µM (inactive); with SK-MEL-28 it was 23.1 µM (inactive); in the test with SN12C, 72.4 µM (inactive). In addition, the values for the GI50 in the test with T47D and with U-251 were 97.9 µM (inactive) and 88.9 µM (inactive), respectively.

Values taken from ChEMBL document CHEMBL1201862, “PubChem BioAssay data set” (2004).
